{"source": "patent US9376442B2", "about": "“Methylpyrrolopyrimidinecarboxamides” (Takeda GmbH, priority 2009, dated 2016)", "data": [{"target": "T1, PDE5A1 (Homo sapiens, UniProt O76074)", "T1 construct": "from tissue; host or cells: human platelets from fresh donor blood (10,000 x g supernatant of sonicated lysate)", "assay": "Inhibition of type 5 phosphodiesterase (PDE5) activity, modified SPA test with human platelet lysate", "format": "biochemical", "settings": "0.5 μM cGMP, read-out: PDE5A1 inhibitory values [measured as −log IC50 (mol/l)] (converted)", "how_it_was_run": "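Scintillation proximity assay with [3H]cGMP tracer at 0.5 μM total cGMP, stopped after 15 min with beads containing IBMX. PDE3 and PDE2 activities suppressed with motapizone (1 μM) and a PDE2 inhibitor (10 nM). Human platelet supernatant served as the enzyme, with compound preincubated 5 min at 37° C; IC50 values from concentration-effect curves.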", "units": {"IC50": "nM"}, "values": [{"molecule": "COCC(=O)N1CC[C@@H](NC(=O)c2c(C)[nH]c3c(-c4cc(OC)ccc4OCC4CC4)ncnc23)C1", "note": "[Example E77, 4-[2-(Cyclopropylmethoxy)-5-methoxyphenyl]-N-[(3R)-1-(methoxyacetyl)pyrrolidin-3-yl]-6-methyl-5H-pyrrolo[3,2-d]pyrimidine-7-carboxamide]", "IC50": "< 1"}, {"molecule": "Cc1cc(-c2ncnc3c(C(=O)N[C@H]4CC[C@@H](NC(=O)CO)CC4)c(C)[nH]c23)c(OCC2CC2)cc1F", "note": "[Example F79, 4-[2-(Cyclopropylmethoxy)-4-fluoro-5-methylphenyl]-N-{cis-4-[(hydroxyacetyl)amino]cyclohexyl}-6-methyl-5H-pyrrolo[3,2-d]pyrimidine-7-carboxamide]", "IC50": "< 1"}, {"molecule": "CCC(=O)N[C@H]1CC[C@H](NC(=O)c2c(C)[nH]c3c(-c4cc(F)c(OC)cc4OCC4CC4)ncnc23)CC1", "note": "[Example E136, 4-[2-(Cyclopropylmethoxy)-5-fluoro-4-methoxyphenyl]-6-methyl-N-[trans-4-(propionylamino)cyclohexyl]-5H-pyrrolo[3,2-d]pyrimidine-7-carboxamide]", "IC50": "< 1"}, {"molecule": "CCC(=O)N1CC[C@@H](NC(=O)c2c(C)[nH]c3c(-c4cc(OC)c(F)cc4OCC4CC4)ncnc23)[C@H](O)C1", "note": "(relative stereo) [Example E114, 4-[2-(Cyclopropylmethoxy)-4-fluoro-5-methoxyphenyl]-N-[(3R*,4R*)-3-hydroxy-1-propionylpiperidin-4-yl]-6-methyl-5H-pyrrolo[3,2-d]pyrimidine-7-carboxamide]", "IC50": "< 1"}, {"molecule": "CCC(=O)N1C[C@@H](O)[C@H](NC(=O)c2c(C)[nH]c3c(-c4ccc(OC)cc4OCC4CC4)ncnc23)C1", "note": "(relative stereo) [Example E64, 4-[2-(Cyclopropylmethoxy)-4-methoxyphenyl]-N-[(3R*,4R*)-4-hydroxy-1-propionylpyrrolidin-3-yl]-6-methyl-5H-pyrrolo[3,2-d]pyrimidine-7-carboxamide]", "IC50": "< 1"}, {"molecule": "CCOc1ccc(C(F)(F)F)cc1-c1ncnc2c(C(=O)NC3CCN(C(C)=O)CC3)c(C)[nH]c12", "note": "[Example E99, N-(1-acetylpiperidin-4-yl)-4-[2-ethoxy-5-(trifluoromethyl)phenyl]-6-methyl-5H-pyrrolo[3,2-d]pyrimidine-7-carboxamide]", "IC50": "< 1"}, {"molecule": "COCC(=O)N1CC[C@@H](NC(=O)c2c(C)[nH]c3c(-c4cc(C)c(F)cc4OCC4CC4)ncnc23)[C@H](O)C1", "note": "(relative stereo) [Example E130, 4-[2-(Cyclopropylmethoxy)-4-fluoro-5-methylphenyl]-N-[(3R*,4R*)-3-hydroxy-1-(methoxyacetyl)piperidin-4-yl]-6-methyl-5H-pyrrolo[3,2-d]pyrimidine-7-carboxamide]", "IC50": "< 1"}, {"molecule": "COCC(=O)N1CC[C@@H](NC(=O)c2c(C)[nH]c3c(-c4cc(F)c(OC)cc4OCC4CC4)ncnc23)C1", "note": "[Example E188, 4-[2-(Cyclopropylmethoxy)-5-fluoro-4-methoxyphenyl]-N-[(3R)-1-(methoxyacetyl)pyrrolidin-3-yl]-6-methyl-5H-pyrrolo[3,2-d]pyrimidine-7-carboxamide]", "IC50": "< 1"}, {"molecule": "COc1cc(-c2ncnc3c(C(=O)N[C@H]4CC[C@@H](NC(=O)[C@H](C)O)CC4)c(C)[nH]c23)c(OCC2CC2)cc1F", "note": "[Example F70, 4-[2-(Cyclopropylmethoxy)-4-fluoro-5-methoxyphenyl]-N-(cis-4-{[(2S)-2-hydroxypropanoyl]amino}cyclohexyl)-6-methyl-5H-pyrrolo[3,2-d]pyrimidine-7-carboxamide]", "IC50": "< 1"}, {"molecule": "COc1cc(-c2ncnc3c(C(=O)N[C@@H]4CCN(C(C)=O)C4)c(C)[nH]c23)c(OCC2CC2)cc1F", "note": "[Example E179, N-[(3R)-1-Acetylpyrrolidin-3-yl]-4-[2-(cyclopropylmethoxy)-4-fluoro-5-methoxyphenyl]-6-methyl-5H-pyrrolo[3,2-d]pyrimidine-7-carboxamide]", "IC50": "< 1"}]}]}
